Source: ChEMBL document CHEMBL1671711, “Serum and cerebrospinal fluid levels of colistin in pediatric patients” (Antimicrob Agents Chemother, 2010)

Tests used:
Klebsiella pneumoniae = assay: Antimicrobial activity against Klebsiella pneumoniae; format: functional, organism-based
Acinetobacter baumannii = assay: Antimicrobial activity against Acinetobacter baumannii; format: functional
[1] = tested on: Stenotrophomonas maltophilia; assay: Antimicrobial activity against Stenotrophomonas maltophilia; format: functional, organism-based

Measured: MIC

COLISTIN
< 0.5 µg/mL: all assays above
